Measurements reported in publication PMC4603705, “A bioinspired peptide scaffold with high antibiotic activity and low in vivo toxicity” (Scientific Reports, 2015).
Converted amounts (≈) assume the structure as drawn. Where two headings read alike, the source gives them in different places. Bridge positions count the residues as written; N and C are the ends. Square brackets hold non-standard residues; d marks the D form. Peptide text beside a SMILES is read from it. * marks the point of attachment. Decanoyl = CCCCCCCCCC(=O)*; Nonanoyl = CCCCCCCCC(=O)*; Dab = NCC[C@H](N)C(=O)O

Experiments:
P. aeruginosa ATTC 9027 = type: cell-based, Pseudomonas aeruginosa; settings: for MIC P. aeruginosa: ATTC 9027; for MIC P. a.: Supplementary Table S1, P. aeruginosa
Procedure: (§1) MICs were measured after 18–20 h of incubation in sterile 96-well plates (Corning Costar 3598 microtiter plates) in Mueller Hinton Broth (MHB) culture medium, (Difco, USA), according to well known in vitro protocols. Bacterial strains in Table 1 were: P. aeruginosa ATTC 9027, E. coli ATTC 8739, S. aureus ATTC 6538, and E. faecalis ATTC 29212. MICs shown in table 4 were performed by Mary Conrad at Cubist Pharmaceuticals (Lexington, MA) in non-binding surface plates.

E. coli ATTC 8739 = type: cell-based, Escherichia coli; settings: for MIC E. coli: ATTC 8739; for MIC E. c.: Supplementary Table S1, E. coli
Procedure: as §1

S. aureus ATTC 6538 = assay: microbe, parasite or virus in culture; type: cell-based, Staphylococcus aureus; settings: for MIC S. aureus: ATTC 6538; for MIC S. a.: Supplementary Table S1, S. aureus
Procedure: as §1

Row | Molecule | MIC S. a. (S. aureus ATTC 6538) [µg/mL] | MIC P. a. (P. aeruginosa ATTC 9027) [µg/mL] | MIC E. c. (E. coli ATTC 8739) [µg/mL] | further results
1 | CCCCCCCCC(=O)N[C@@H](CCN)C(=O)N[C@H](C(=O)N[C@@H](CCN)C(=O)N[C@H]1CSSC[C@@H](C(N)=O)NC(=O)[C@H](CCN)NC(=O)[C@H](CCN)NC(=O)[C@H](CC(C)C)NC(=O)[C@@H](Cc2ccccc2)NC(=O)[C@H](CCN)NC1=O)[C@@H](C)O [Analog 1, nonanoyl-Dab-Thr-Dab-Cys-Dab-Phe-Leu-Dab-Dab-Cys] (Nonanoyl-[Dab]T[Dab]C[Dab][dF]L[Dab][Dab]C-NH2; disulfide 4-10) | – | – | – | MIC P. aeruginosa (P. aeruginosa ATTC 9027): 8 µg/mL (≈ 6.54 µM); MIC E. coli (E. coli ATTC 8739): 4 µg/mL (≈ 3.27 µM)
2 | CCCCCCCCC(=O)N[C@@H](CCCNC(=N)N)C(=O)N[C@H](C(=O)N[C@@H](CCN)C(=O)N[C@H]1CSSC[C@@H](C(N)=O)NC(=O)[C@H](CCN)NC(=O)[C@H](CCN)NC(=O)[C@H](CC(C)C)NC(=O)[C@@H](Cc2ccccc2)NC(=O)[C@H](CCN)NC1=O)[C@@H](C)O [Analog 2, nonanoyl-Arg-Thr-Dab-Cys-Dab-Phe-Leu-Dab-Dab-Cys] (Nonanoyl-RT[Dab]C[Dab][dF]L[Dab][Dab]C-NH2; disulfide 4-10) | – | – | – | MIC P. aeruginosa (P. aeruginosa ATTC 9027): 8 µg/mL (≈ 6.25 µM); MIC S. aureus (S. aureus ATTC 6538): >32 µg/mL; MIC E. coli (E. coli ATTC 8739): 8 µg/mL (≈ 6.25 µM)
3 | CCCCCCCCC(=O)N[C@@H](CCN)C(=O)N[C@H](C(=O)N[C@@H](CCCNC(=N)N)C(=O)N[C@H]1CSSC[C@@H](C(N)=O)NC(=O)[C@H](CCN)NC(=O)[C@H](CCN)NC(=O)[C@H](CC(C)C)NC(=O)[C@@H](Cc2ccccc2)NC(=O)[C@H](CCN)NC1=O)[C@@H](C)O [Analog 3, nonanoyl-Dab-Thr-Arg-Cys-Dab-Phe-Leu-Dab-Dab-Cys] (Nonanoyl-[Dab]TRC[Dab][dF]L[Dab][Dab]C-NH2; disulfide 4-10) | – | – | – | MIC P. aeruginosa (P. aeruginosa ATTC 9027): 4 µg/mL (≈ 3.13 µM); MIC S. aureus (S. aureus ATTC 6538): >32 µg/mL; MIC E. coli (E. coli ATTC 8739): 8 µg/mL (≈ 6.25 µM)
4 | CCCCCCCCC(=O)N[C@@H](CCN)C(=O)N[C@H](C(=O)N[C@@H](CCN)C(=O)N[C@H]1CSSC[C@@H](C(N)=O)NC(=O)[C@H](CCN)NC(=O)[C@H](CCCNC(=N)N)NC(=O)[C@H](CC(C)C)NC(=O)[C@@H](Cc2ccccc2)NC(=O)[C@H](CCN)NC1=O)[C@@H](C)O [Analog 4, nonanoyl-Dab-Thr-Dab-Cys-Dab-Phe-Leu-Arg-Dab-Cys] (Nonanoyl-[Dab]T[Dab]C[Dab][dF]LR[Dab]C-NH2; disulfide 4-10) | – | – | – | MIC P. aeruginosa (P. aeruginosa ATTC 9027): 2 to 4 µg/mL; MIC S. aureus (S. aureus ATTC 6538): >32 µg/mL; MIC E. coli (E. coli ATTC 8739): 8 µg/mL (≈ 6.25 µM)
5 | CCCCCCCCC(=O)N[C@@H](CCN)C(=O)N[C@H](C(=O)N[C@@H](CCCNC(=N)N)C(=O)N[C@H]1CSSC[C@@H](C(N)=O)NC(=O)[C@H](CCN)NC(=O)[C@H](CCCNC(=N)N)NC(=O)[C@H](CC(C)C)NC(=O)[C@@H](Cc2ccccc2)NC(=O)[C@H](CCN)NC1=O)[C@@H](C)O [Analog 6, nonanoyl-Dab-Thr-Arg-Cys-Dab-Phe-Leu-Arg-Dab-Cys] (Nonanoyl-[Dab]TRC[Dab][dF]LR[Dab]C-NH2; disulfide 4-10) | – | – | – | MIC P. aeruginosa (P. aeruginosa ATTC 9027): 8 µg/mL (≈ 5.99 µM); MIC E. coli (E. coli ATTC 8739): 8 µg/mL (≈ 5.99 µM)
6 | CCCCCCCCC(=O)N[C@@H](CCCNC(=N)N)C(=O)N[C@H](C(=O)N[C@@H](CCCNC(=N)N)C(=O)N[C@H]1CSSC[C@@H](C(N)=O)NC(=O)[C@H](CCCNC(=N)N)NC(=O)[C@H](CCCNC(=N)N)NC(=O)[C@H](CC(C)C)NC(=O)[C@@H](Cc2ccccc2)NC(=O)[C@H](CCN)NC1=O)[C@@H](C)O [Analog 10, nonanoyl-Arg-Thr-Arg-Cys-Dab-Phe-Leu-Arg-Arg-Cys] (Nonanoyl-RTRC[Dab][dF]LRRC-NH2; disulfide 4-10) | – | – | – | MIC P. aeruginosa (P. aeruginosa ATTC 9027): 16 µg/mL (≈ 11.1 µM); MIC S. aureus (S. aureus ATTC 6538): 32 µg/mL (≈ 22.1 µM); MIC E. coli (E. coli ATTC 8739): 32 µg/mL (≈ 22.1 µM)
7 | CCCCCCCCC(=O)N[C@@H](CCCNC(=N)N)C(=O)N[C@H](C(=O)N[C@@H](CCN)C(=O)N[C@H]1CSSC[C@H](C(N)=O)NC(=O)[C@H](CCN)NC(=O)[C@H](CCCNC(=N)N)NC(=O)[C@H](CC(C)C)NC(=O)[C@@H](Cc2ccccc2)NC(=O)[C@H](CCN)NC1=O)[C@@H](C)O [Analog 13, nonanoyl-Arg-Thr-Dab-Cys-Dab-Phe-Leu-Arg-Dab-Cys] (Nonanoyl-RT[Dab]C[Dab][dF]LR[Dab][dC]-NH2; disulfide 4-10) | – | – | – | MIC P. aeruginosa (P. aeruginosa ATTC 9027): 8 µg/mL (≈ 5.99 µM); MIC S. aureus (S. aureus ATTC 6538): 16 µg/mL (≈ 12 µM); MIC E. coli (E. coli ATTC 8739): 4 µg/mL (≈ 2.99 µM)
8 | CCCCCCCCCC(=O)N[C@@H](CCCNC(=N)N)C(=O)N[C@H](C(=O)N[C@@H](CCN)C(=O)N[C@H]1CSSC[C@@H](C(N)=O)NC(=O)[C@H](CCN)NC(=O)[C@H](CCCNC(=N)N)NC(=O)[C@H](CC(C)C)NC(=O)[C@@H](Cc2ccccc2)NC(=O)[C@H](CCN)NC1=O)[C@@H](C)O [Analog 36, decanoyl-Arg-Thr-Dab-Cys-Dab-Phe-Leu-Arg-Dab-Cys] (Decanoyl-RT[Dab]C[Dab][dF]LR[Dab]C-NH2; disulfide 4-10) | – | – | – | MIC P. aeruginosa (P. aeruginosa ATTC 9027): 8 µg/mL (≈ 5.93 µM); MIC S. aureus (S. aureus ATTC 6538): 16 µg/mL (≈ 11.9 µM); MIC E. coli (E. coli ATTC 8739): 8 µg/mL (≈ 5.93 µM)
9 | CCCCCCCCCC(=O)N[C@@H](CCN)C(=O)N[C@H](C(=O)N[C@@H](CCN)C(=O)N[C@H]1CSSC[C@H](C(N)=O)NC(=O)[C@H](CCN)NC(=O)[C@H](CCN)NC(=O)[C@H](CC(C)C)NC(=O)[C@@H](Cc2ccccc2)NC(=O)[C@H](CCN)NC1=O)[C@@H](C)O [Analog 37, decanoyl -Dab-Thr-Dab-Cys-Dab-Phe-Leu-Dab-Dab-Cys] (Decanoyl-[Dab]T[Dab]C[Dab][dF]L[Dab][Dab][dC]-NH2; disulfide 4-10) | – | – | – | MIC P. aeruginosa (P. aeruginosa ATTC 9027): 4 µg/mL (≈ 3.23 µM); MIC S. aureus (S. aureus ATTC 6538): 8 µg/mL (≈ 6.46 µM); MIC E. coli (E. coli ATTC 8739): 2 µg/mL (≈ 1.62 µM)
10 | C9-Arg(NO2)-Thr-Dab-Cys-Dab-Phe-Leu-Arg(NO2)-Dab-Cys [Analog 16] | > 32 | – | – | –
11 | C9-Arg-Thr-Dab-Cys-Arg-Phe-Leu-Arg-Dab-Cys [Analog 9] | 16 | 128 | 16 | –
12 | C9-Arg-Thr-Dab-Cys-Dab-Gly-Gly-Arg-Dab-Cys [Analog 24] | > 128 | > 128 | > 128 | –
13 | C9-Arg-Thr-Dab-Cys-Dab-Gly-Leu-Arg-Dab-Cys [Analog 25] | > 128 | > 128 | > 128 | –
14 | C9-Arg-Thr-Dab-Cys-Dab-Leu-Thr-Arg-Dab-Cys [Analog 30] | > 128 | 32 | 32 | –
15 | C9-Arg-Thr-Dab-Cys-Dab-Phe-Gly-Arg-Dab-Cys [Analog 26] | 128 | > 128 | 64 | –
16 | C9-Arg-Thr-Dab-Cys-Dab-Phe-Leu-Arg-Dab-Cys [Analog 17] | – | – | – | MIC P. a. (P. aeruginosa ATTC 9027; listed as 17): 16 µg/mL
17 | C9-Arg-Thr-Dab-Ser-Dab-Phe-Leu-Arg-Dab-Ser [Analog 18] | 64 | 64 | 32 | –
18 | C9-Arg-Thr-Lys-Cys-Dab-Phe-Leu-Arg-Lys-Cys [Analog 32] | 32 | 16 | 8 | –
19 | C9-Dab-Thr-Dab-Cys-Dab-Phe-Met(O)-Dab-Dab-Cys [Analog 20] | > 32 | – | > 32 | –
20 | C9-Dab[(C=NH)NH2]-Thr-Dab-Cys-Dab-Phe-Leu-Dab[(C=NH)NH2]-Dab-Cys [Analog 15] | > 32 | 8 | 4 | –
21 | C9-Orn-Thr-Dab-Cys-Dab-Phe-Leu-Orn-Dab-Cys [Analog 35] | 64 | 16 | 16 | –

Further lines, with some results ahead:

Row | MIC S. a. (S. aureus ATTC 6538) [µg/mL] | MIC P. a. (P. aeruginosa ATTC 9027) [µg/mL] | MIC E. c. (E. coli ATTC 8739) [µg/mL] | Molecule | further results
22 | 16 | 128 | 16 | C9-Arg-Thr-Arg-Cys-Arg-Phe-Leu-Arg-Dab-Cys (RTRCRFLR; not fully specified; C9 acyl; Dab-Cys C-terminal; printed: Arg-Thr-Arg-Cys-Arg-Phe-Leu-Arg-) [Analog 11] | –
23 | 32 | 32 | 32 | C9-Arg-Thr-Arg-Cys-Dab-Phe-Leu-Dab-Dab-Cys [Analog 7] | –
24 | 32 | 16 | 16 | C9-Arg-Thr-Arg-Cys-Dab-Phe-Met-Arg-Dab-Cys [Analog 22] | –
25 | 32 | 16 | 32 | C9-Arg-Thr-Dab-Cys-Dab-Leu-Leu-Arg-Dab-Cys [Analog 29] | –
26 | 32 | – | 64 | C9-Arg-Thr-Dab-Cys-Dab-Phe-Leu-Arg-Dab-Cys [Analog 23] | MIC P. a. (P. aeruginosa ATTC 9027; listed as 23): 128 µg/mL
27 | > 32 | 8 | – | C9-Arg-Thr-Dab-Cys-Dab-Phe-Met-Arg-Dab-Cys [Analog 21] | –
28 | 64 | 8 | 16 | C9-Arg-Thr-Dab-Cys-Dab-Phe-Thr-Arg-Dab-Cys [Analog 27] | –
29 | 8 | 8 | 4 | C9-Arg-Thr-Dab-Cys-Dab-Trp-Leu-Arg-Dab-Cys [Analog 28] | –
30 | 128 | 32 | 32 | C9-Arg-Thr-His-Cys-Dab-Phe-Leu-Arg-His-Cys [Analog 31] | –
31 | 32 | 16 | 8 | C9-Arg-Thr-Orn-Cys-Dab-Phe-Leu-Arg-Orn-Cys [Analog 34] | –
32 | 32 | 16 | 4 | C9-Dab-Thr-Dab-Cys-Dab-Phe-Met-Dab-Dab-Cys [Analog 19] | –
33 | 16 | 16 | 2 | C9-Dap[(C=NH)NH2]-Thr-Dab-Cys-Dab-Phe-Leu-Dap[(C=NH)NH2]-Dab-Cys [Analog 14] | –
34 | 128 | 32 | 16 | C9-Lys-Thr-Dab-Cys-Dab-Phe-Leu-Lys-Dab-Cys [Analog 33] | –
